Measurements taken from patent publication US20220117938A1, “COMBINATON THERAPY WITH A DON PRODRUG AND AN IMMUNE CHECKPOINT INHIBITOR” (DRACEN PHARMACEUTICALS, INC., priority 2019, published 2022).

Tested on: MC38 tumors
Assay: Anti-tumor efficacy of Compound 1 and Compound 3 by IV and SC routes in the MC38 model (Example 9)
Assay type: in vivo, mice
Method: Female C57BL/6 mice were inoculated subcutaneously in the right flank with MC38 cells for tumor development. Six days after tumor inoculation, mice with tumor sizes ranging from 52-97 mm^3 (average tumor size 71 mm^3) were selected and assigned into 10 groups using stratified randomization with 8 mice per group based upon their tumor volumes. The treatments were started from the day of randomization (defined as D0), Group 1 was treated with Vehicle control, SC qd×5 days on (Mon-Fri)×4 cycles; Group 2 was treated with Compound 1, 1.4 mpk SC, qd×5 days on (Mon-Fri)×4 cycles; Group 3 was treated with Compound 1, 7 mpk IV, biw (Mon, Thu)×4 cycles; Group 4 was treated with Compound 1, 14 mpk IV, biw (Mon, Thu)×4 cycles; Group 5 was treated with Compound 1, 14 mpk IV, qw (Mon)×4 cycles; Group 6 was treated with Compound 1, 21 mpk IV, qw (Mon)×4 cycles; Group 7 was treated with Compound 3, 1 mpk SC, qd 5 days on (Mon-Fri)×4 cycles; Group 8 was treated with Compound 3, 3 mpk SC, qd 5 days on (Mon-Fri)×4 cycles; Group 9 was treated with Compound 3, 9 mpk SC, qd 5 days on (Mon-Fri)×4 cycles; and Group 10 was treated with Compound 3, 7 mpk IV, tiw (Mon, Wed, Fri)×4 cycles. The tumor sizes were measured three times per week during the treatment. Survival was monitored with tumor volume exceeding 2000 mm^3 as endpoint. The entire study was terminated on D44 after start of the treatment. All treatments were well-tolerated without any adverse effects or significant body weight loss.

[1] = Group 2, 1.4 mpk SC qd Mon-Fri x4 cycles
[2] = Group 2, 1.4 mpk SC qd Mon-Fri x4 cycles, day 11
[3] = Group 3, 7 mpk IV biw x4 cycles
[4] = Group 3, 7 mpk IV biw x4 cycles, day 11
[5] = Group 4, 14 mpk IV biw x4 cycles
[6] = Group 4, 14 mpk IV biw x4 cycles, day 11
[7] = Group 5, 14 mpk IV qw x4 cycles
[8] = Group 5, 14 mpk IV qw x4 cycles, day 11
[9] = Group 6, 21 mpk IV qw x4 cycles
[10] = Group 6, 21 mpk IV qw x4 cycles, day 11

CC(=O)N[C@@H](Cc1c[nH]c2ccccc12)C(=O)N[C@@H](CCC(=O)C=[N+]=[N-])C(=O)OC(C)C [Compound 1, Isopropyl (S)-2-((S)-2-acetamido-3-(1H-indol-3-yl)propanamido)-6-diazo-5-oxohexanoate]
ILS [1]: 170.0% | MST [1]: 40.5 days | RTV at day 11 [1]: 0.63 ± 0.11 | Tumor Size at day 11 [1]: 43 ± 6 mm^3 | Tumor volume (Group 2, 1.4 mpk SC qd Mon-Fri x4 cycles, day 0): 71 ± 5 mm^3 | Tumor volume (Group 2, 1.4 mpk SC qd Mon-Fri x4 cycles, day 2): 64 ± 5 mm^3 | Tumor volume (Group 2, 1.4 mpk SC qd Mon-Fri x4 cycles, day 4): 68 ± 10 mm^3 | Tumor volume (Group 2, 1.4 mpk SC qd Mon-Fri x4 cycles, day 7): 61 ± 5 mm^3 | Tumor volume (Group 2, 1.4 mpk SC qd Mon-Fri x4 cycles, day 9): 39 ± 3 mm^3 | T/C [2]: 3.86% | TGI [2]: 102.69% | Tumor volume [2]: 43 ± 6 mm^3 | Tumor volume (Group 2, 1.4 mpk SC qd Mon-Fri x4 cycles, day 14): 51 ± 9 mm^3 | Tumor volume (Group 2, 1.4 mpk SC qd Mon-Fri x4 cycles, day 16): 50 ± 7 mm^3 | Tumor volume (Group 2, 1.4 mpk SC qd Mon-Fri x4 cycles, day 18): 52 ± 9 mm^3 | Tumor volume (Group 2, 1.4 mpk SC qd Mon-Fri x4 cycles, day 21): 44 ± 7 mm^3 | Tumor volume (Group 2, 1.4 mpk SC qd Mon-Fri x4 cycles, day 23): 41 ± 9 mm^3 | Tumor volume (Group 2, 1.4 mpk SC qd Mon-Fri x4 cycles, day 25): 42 ± 11 mm^3 | Tumor volume (Group 2, 1.4 mpk SC qd Mon-Fri x4 cycles, day 28): 55 ± 14 mm^3 | Tumor volume (Group 2, 1.4 mpk SC qd Mon-Fri x4 cycles, day 30): 140 ± 50 mm^3 | Tumor volume (Group 2, 1.4 mpk SC qd Mon-Fri x4 cycles, day 32): 303 ± 119 mm^3 | Tumor volume (Group 2, 1.4 mpk SC qd Mon-Fri x4 cycles, day 35): 509 ± 166 mm^3 | Tumor volume (Group 2, 1.4 mpk SC qd Mon-Fri x4 cycles, day 37): 896 ± 217 mm^3 | ILS [3]: 123.3% | MST [3]: 33.5 days | RTV at day 11 [3]: 1.44 ± 0.20 | Tumor Size at day 11 [3]: 99 ± 11 mm^3 | Tumor volume (Group 3, 7 mpk IV biw x4 cycles, day 0): 71 ± 4 mm^3 | Tumor volume (Group 3, 7 mpk IV biw x4 cycles, day 2): 61 ± 9 mm^3 | Tumor volume (Group 3, 7 mpk IV biw x4 cycles, day 4): 64 ± 7 mm^3 | Tumor volume (Group 3, 7 mpk IV biw x4 cycles, day 7): 98 ± 8 mm^3 | Tumor volume (Group 3, 7 mpk IV biw x4 cycles, day 9): 79 ± 7 mm^3 | T/C [4]: 8.87% | TGI [4]: 97.42% | Tumor volume [4]: 99 ± 11 mm^3 | Tumor volume (Group 3, 7 mpk IV biw x4 cycles, day 14): 140 ± 16 mm^3 | Tumor volume (Group 3, 7 mpk IV biw x4 cycles, day 16): 134 ± 10 mm^3 | Tumor volume (Group 3, 7 mpk IV biw x4 cycles, day 18): 133 ± 15 mm^3 | Tumor volume (Group 3, 7 mpk IV biw x4 cycles, day 21): 236 ± 36 mm^3 | Tumor volume (Group 3, 7 mpk IV biw x4 cycles, day 23): 317 ± 59 mm^3 | Tumor volume (Group 3, 7 mpk IV biw x4 cycles, day 25): 337 ± 56 mm^3 | Tumor volume (Group 3, 7 mpk IV biw x4 cycles, day 28): 602 ± 144 mm^3 | Tumor volume (Group 3, 7 mpk IV biw x4 cycles, day 30): 1181 ± 278 mm^3 | ILS [5]: 133.3% | MST [5]: 35 days | RTV at day 11 [5]: 1.06 ± 0.22 | Tumor Size at day 11 [5]: 69 ± 11 mm^3 | Tumor volume (Group 4, 14 mpk IV biw x4 cycles, day 0): 72 ± 6 mm^3 | Tumor volume (Group 4, 14 mpk IV biw x4 cycles, day 2): 80 ± 12 mm^3 | Tumor volume (Group 4, 14 mpk IV biw x4 cycles, day 4): 70 ± 8 mm^3 | Tumor volume (Group 4, 14 mpk IV biw x4 cycles, day 7): 86 ± 13 mm^3 | Tumor volume (Group 4, 14 mpk IV biw x4 cycles, day 9): 70 ± 11 mm^3 | T/C [6]: 6.51% | TGI [6]: 100.28% | Tumor volume [6]: 69 ± 11 mm^3 | Tumor volume (Group 4, 14 mpk IV biw x4 cycles, day 14): 95 ± 14 mm^3 | Tumor volume (Group 4, 14 mpk IV biw x4 cycles, day 16): 107 ± 25 mm^3 | Tumor volume (Group 4, 14 mpk IV biw x4 cycles, day 18): 96 ± 22 mm^3 | Tumor volume (Group 4, 14 mpk IV biw x4 cycles, day 21): 144 ± 45 mm^3 | Tumor volume (Group 4, 14 mpk IV biw x4 cycles, day 23): 163 ± 41 mm^3 | Tumor volume (Group 4, 14 mpk IV biw x4 cycles, day 25): 167 ± 47 mm^3 | Tumor volume (Group 4, 14 mpk IV biw x4 cycles, day 28): 261 ± 54 mm^3 | Tumor volume (Group 4, 14 mpk IV biw x4 cycles, day 30): 562 ± 124 mm^3 | Tumor volume (Group 4, 14 mpk IV biw x4 cycles, day 32): 967 ± 171 mm^3 | Tumor volume (Group 4, 14 mpk IV biw x4 cycles, day 35): 1884 ± 337 mm^3 | ILS [7]: 86.7% | MST [7]: 28 days | RTV at day 11 [7]: 2.06 ± 0.40 | Tumor Size at day 11 [7]: 134 ± 21 mm^3 | Tumor volume (Group 5, 14 mpk IV qw x4 cycles, day 0): 70 ± 4 mm^3 | Tumor volume (Group 5, 14 mpk IV qw x4 cycles, day 2): 67 ± 5 mm^3 | Tumor volume (Group 5, 14 mpk IV qw x4 cycles, day 4): 77 ± 12 mm^3 | Tumor volume (Group 5, 14 mpk IV qw x4 cycles, day 7): 152 ± 20 mm^3 | Tumor volume (Group 5, 14 mpk IV qw x4 cycles, day 9): 105 ± 12 mm^3 | T/C [8]: 12.69% | TGI [8]: 93.98% | Tumor volume [8]: 134 ± 21 mm^3 | Tumor volume (Group 5, 14 mpk IV qw x4 cycles, day 14): 312 ± 56 mm^3 | ILS [9]: 60.0% | MST [9]: 24 days | RTV at day 11 [9]: 2.86 ± 0.39 | Tumor Size at day 11 [9]: 206 ± 33 mm^3 | Tumor volume (Group 6, 21 mpk IV qw x4 cycles, day 0): 71 ± 4 mm^3 | Tumor volume (Group 6, 21 mpk IV qw x4 cycles, day 2): 79 ± 10 mm^3 | Tumor volume (Group 6, 21 mpk IV qw x4 cycles, day 4): 80 ± 9 mm^3 | Tumor volume (Group 6, 21 mpk IV qw x4 cycles, day 7): 182 ± 24 mm^3 | Tumor volume (Group 6, 21 mpk IV qw x4 cycles, day 9): 164 ± 21 mm^3 | T/C [10]: 17.57% | TGI [10]: 87.26% | Tumor volume [10]: 206 ± 33 mm^3 | Tumor volume (Group 6, 21 mpk IV qw x4 cycles, day 14): 440 ± 87 mm^3 | Tumor volume (Group 6, 21 mpk IV qw x4 cycles, day 16): 515 ± 84 mm^3 | Tumor volume (Group 6, 21 mpk IV qw x4 cycles, day 18): 740 ± 120 mm^3 | Tumor volume (Group 6, 21 mpk IV qw x4 cycles, day 21): 1005 ± 174 mm^3 | Tumor volume (Group 6, 21 mpk IV qw x4 cycles, day 23): 1683 ± 302 mm^3
